Values quoted from earlier work, collected in patent US20230003743A1, “METHODS AND COMPOSITIONS FOR TREATING OR PREVENTING AN ALLERGY OR ANAPHYLAXIS” (THE CHILDREN'S MEDICAL CENTER CORPORATION, priority 2020, published 2023).

Test system: humanized mouse model of FA
Conditions: SCID mice engrafted with human CD34+ hematopoietic stem cells, peanut-sensitized, enterally challenged with PN

In the case of Omalizumab, the “anaphylactic response (hypothermia, increases in plasma tryptase levels) upon enteral peanut challenge” value is listed as “ablates this anaphylactic response”.
